Experimental data reported in patent US7700652B2, “Treating urinary incontinence using prodrugs of GABA analogs” (XenoPort, Inc., priority 2003, dated 2010).

Assay: drug release from the osmotic sustained release dosage form in artificial gastric fluid
Format: physicochemical
Settings: sustained release oral osmotic dosage form of Example 1 (700 mg drug composition per bilayer core, one 10 mil passageway)
Description: Next, one 10 mil (0.254 mm) exit passageway is mechanically drilled through the semipermeable wall to connect the drug layer with the exterior of the dosage system. The residual solvent is removed by first drying for 120 hours at 50° C. and 30% relative humidity, then the systems are dried for 2 hours at 50° C. to remove excess moisture. The drug dosage form produced by this process provides: ˜90 wt % 1-{[(α-isobutanoyloxyethoxy)carbonyl]aminomethyl}-1-cyclohexane acetic acid, 4 wt % hydroxypropylmethylcellulose (11,200 molecular weight), 4 wt % polyethylene oxide of 5,000,000 molecular weight and 1 wt % magnesium stearate in the drug layer. The push composition comprises […] polyethylene oxide (7,500,000 molecular weight) 30 wt % sodium chloride, 5 wt % hydroxypropylmethylcellulose (11,200 molecular weight) 1 wt % red ferric oxide, 0.25 wt % magnesium stearate, and 0.075 wt % of butylated hydroxytoluene. The wall comprises 100 wt % cellulose acetate comprising a ˜40% acetyl content. The dosage form has one passageway, 10 mils (0.254 mm), and it has a 1-{[(α-isobutanoyloxyethoxy)carbonyl]aminomethyl}-1-cyclohexane acetic acid release rate of >20 mg/hr and a half life for drug release of >8 hours in artificial gastric fluid.

SMILES: CC(OC(=O)NCC1(CC(=O)O)CCCCC1)OC(=O)C(C)C (stereo not drawn) [1-{[(α-isobutanoyloxyethoxy)carbonyl]aminomethyl}-1-cyclohexane acetic acid]
- release rate: > 20 mg/h
